US11161845B2, “Pyrrolopyridine-aniline compounds for treatment of dermal disorders” (Nflection Therapeutics, Inc., priority 2017, dated 2021)

Tests used:
[1] = system: A375 cells; experiment: A375 (BRAF) GI50 cell-based assay (Cell Titer-Glo); settings: Homo sapiens, A-375; 72 hours; read-out: Assay 2: A375 (BRAF) GI50
Procedure: (§1) Alternatively, the following procedure can be used to measure cell-based activity. Test compounds were dissolved in DMSO in 10 mM stock. Cell Titer-Glo® 2.0 Luminescent cell viability assay reagent was purchased from Promega (Madison, Wis.). A375 and HCT116 cell lines were purchased from American Type Culture Collection (Manassas, Va.). For A375 cells, cell culture media was DMEM+10% FBS. For HCT116 cells, cell culture media was McCoy's 5A+10% FBS. All media were supplemented with 100 μg/mL of penicillin, and 100 μg/mL of streptomycin. Cultures were maintained at 37° C. in a humidified atmosphere of 5% CO2 and 95% air.
(§2) Test compounds were diluted in DMSO solution with 10-dose and 3-fold dilutions in a source plate starting at 10 mM. 25 nL of each test compound was delivered from the source plate to each well of the 384-well cell culture plates (T=Final) by Echo 550. 25 μL of culture medium containing 2000 of A375 or HCT116 cells was added to each of the wells in duplicates of the cell culture plates (T=0 and T=Final). 25 μL of Cell Titer Glo 2.0 reagent was added to each well of cell culture plate (T=0). The contents were mixed on an orbital shaker for 2 min and incubated at room temperature for 15 min to stabilize luminescent signal. Luminescence was recorded by Envision 2104 Multilabel Reader (PerkinElmer, Santa Clara, Calif.). The number of viable cells in culture was determined based on quantitation of the ATP present in each culture well. The cells in cell culture plate (T=Final) were incubated with the compounds at 37° C., 5% CO2 for 72 hours. 25 μL of Cell Titer Glo 2.0 reagent was added to each well. The contents were mixed on an orbital shaker for 2 min and incubated at room temperature for 15 min to stabilize luminescent signal. Luminescence was recorded by Envision 2104 Multilabel Reader (PerkinElmer, Santa Clara, Calif.). The number of viable cells in culture was determined based on quantitation of the ATP present in each culture well. The G150 curves were plotted using the GraphPad Prism 4 program based on a sigmoidal dose-response equation Y=Bottom+(Top−Bottom)/(1+10^((Log EC50−X)*HillSlope)). All parameters in the equation were calculated by GraphPad Prism 4 program. […] Accordingly, GI50 is the value of 10^X, where X was calculated by the Curve Fitting Equation when Y=50 using Excel.

[2] = S9 stability assay, human liver S9 fraction; assay type: in vitro ADME
How it was run: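 Incubation at 37 °C of 1 μM compound with 2 mg/mL human liver S9 protein and 1 mM NADPH in 100 mM potassium phosphate pH 7.4 (1 mM EDTA, 3 mM MgCl2), sampled at 0, 15, 30, 60 min. Parent loss by LC/MS/MS gave t1/2 and CLint = 0.693/t1/2 × mL incubation/mg S9 protein.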

[3] = system: HCT116 cells; experiment: HCT116 (Kras) GI50 cell-based assay (Cell Titer-Glo); settings: Homo sapiens, HCT-116; 72 hours; read-out: Assay 3: HCT116 (Kras) GI50
Procedure: as §1, §2

[4] = system: p-ERK in human cutaneous neurofibroma (cNF) explants; experiment: Human cutaneous neurofibroma explant protocol, p-ERK suppression; assay type: cell-based
Excerpt: Study Objectives: The primary objective was to assess the efficacy of a topically-formulated compound described herein in suppressing p-ERK, a downstream biomarker of RAS/MAPK signaling in neurofibroma explants.
Primary dermal neurofibromas or cutaneous neurofibromas were obtained from patients with clinical or genetic diagnoses of NFL. […] Specimens were identified under the direction of the Principal Investigator and placed in cell proliferation media (DMEM/F12 containing penicillin/streptomycin (0.1%); fungizone (40 μg/mL); B27 (without vitamin A).
Specimens were identified under the direction of the Principal Investigator
Specimens were chopped into 2 mm fragments and placed in 24-well plates containing cell proliferation media (DMEM/F12 containing penicillin/streptomycin (0.1%); fungizone (40 μg/mL); B27 (without vitamin A) and submerged in media with drug. For topical gel application, samples were placed in 96 well plates with epidermal surface exposed to air.
The gel formulation was 1% hydroxypropyl cellulose in DMSO/PEG 400 1:1 (v/v). Harvested tissue was bisected and with half snap frozen and half fixed in 10% formalin and paraffin embedded for further analysis.
Samples were harvested at 4 hours with half snap frozen in liquid nitrogen and half fixed in 10% formalin and paraffin embedded for histologic analysis.
Western Blot analysis: For immunoblotting, total skin biopies were lysed in lysis buffer and run on Western blots. Antibodies used for immunoblotting included rabbit anti-phospho-p44/42 MAPK (1:3000, Cell Signaling) and rabbit anti-p44/42 MAPK (1:3000, Cell Signaling), rabbit anti-phospho-Mek1/2 (1:3000, Cell Signaling), mouse anti-actin (1:5000, Sigma-Aldrich), donkey anti-mouse IgG conjugated to horseradish peroxidase (HRP; 1:40,000, Amersham Biosciences) and goat anti-rabbit IgG conjugated HRP (1:40,000, Jackson ImmunoResearch).
Immunohistochemistry: Immunohistochemistry was performed on 5 pm paraffin sections. Antigen retrieval with enzyme treatment (1:1000) using standard protocols. Antibodies used were rabbit p-ERK (Cell Signaling, 4307S, 1:100). Bond Polymer Refine anti-rabbit HRP Detection (Leica Biosystems) was used according to manufacturer's protocol. Sections were then counterstained with hematoxylin, dehydrated and film coverslipped using a TissueTek-Prisma and Coverslipper (Sakura).
Data Analysis: Semi-quantative Western blot was used to assess differences in p-ERK in samples treated with a compound described herein compared to vehicle control.

**Q.** Which GI50 [1] does the source give for `Cn1c(Nc2ccc(I)cc2F)c(C(=O)NOCCO)c2cccnc21` [Example 2, 2-((2-Fluoro-4-iodophenyl)amino)—N-(2-hydroxyethoxy)-1-methyl-1H-pyrrolo[2,3-b]pyridine-3-carboxamide] here?
**A.** Its GI50 is 63 nM.

**Q.** What about the “Assay 5: human liver S9 instrinsic clearance value” ([2]; Table 2, 1 μM, 2 mg/mL S9 protein, NADPH) of the same compound?
**A.** The value was 21.45 μL/min/mg protein.

**Q.** What about the microsomal CLint at 1 μM ([2]; pH 7.4, Table 1, human liver S9 fraction, read-out: CLint) of the same compound?
**A.** The microsomal CLint at 1 μM was 21.4 µL/min/mg.

**Q.** What about the half-life at 1 μM ([2]; pH 7.4, Table 1, human liver S9 fraction, read-out: Liver S9 t1/2) of the same compound?
**A.** The half-life at 1 μM was 16 min.

**Q.** What about the GI50 [3] of the same compound?
**A.** The GI50 was 196 nM.

**Q.** What about the “suppression of p-ERK” value ([4]; FIG. 2, 500 nM, explant submerged in media, 4 hours) of the same compound?
**A.** Its value is “suppression of p-ERK”.

**Q.** What about the “dose-dependent suppression of p-ERK” value ([4]; FIG. 3, explant submerged in media, 4 hours) of the same compound?
**A.** The value was “dose-dependent suppression of p-ERK”.

**Q.** And the “p-ERK after application of a topical gel” value ([4]; FIG. 4, gel 1% hydroxypropyl cellulose in DMSO/PEG 400 1:1, 4 hours)?
**A.** The value was “p-ERK was suppressed”.

**Q.** And the “suppression of pERK” value ([4]; FIGS. 1a and 1b, explant submerged in media, 4 hours)?
**A.** The value was “suppression of pERK”.
